This note sets out measurements from ChEMBL document CHEMBL5154828 (J Med Chem, 2022).

The nature of series [1]: Ratio of drug concentration in rat ovary to plasma at 20 mg/kg, po measured after 2 hrs. The conditions noted are these: female.
Series [2] is described as follows: Ratio of drug concentration in rat brain to plasma at 20 mg/kg, po measured after 2 hrs.
A short description of series [3]: Cmax in ICR mouse at 2 mg/kg, iv measured up to 24 hrs by LC/MS/MS analysis. On the set-up: dose 2 mg/kg, time < 24 hrs, route iv. Format: ADME, organism-based. The settings on record: in vivo.
A short description of series [4]: Drug concentration in rat blood at 20 mg/kg, po measured after 2 hrs. The format is ADME, organism-based. The settings on record: whole blood, read-out: Ct.
Series [5] can be described thus: Drug concentration in rat ovary at 20 mg/kg, po measured after 2 hrs. Format: ADME, organism-based, Female gonad. The settings on record: female, read-out: Ct.
Series [6] can be described thus: Ratio of drug concentration in rat breast to plasma at 20 mg/kg, po measured after 2 hrs.
Series [7] in a line: Elimination half life in ICR mouse at 2 mg/kg, iv measured up to 24 hrs by LC/MS/MS analysis. The format is ADME, organism-based. The settings on record: in vivo, read-out: beta t1/2 (converted).
Series [8] is described as follows: MRT in Sprague-Dawley rat at 10 mg/kg, po measured up to 24 hrs by LC/MS/MS analysis. The settings on record: in vivo. Format: ADME, organism-based.
Series [9] is described as follows: Ratio of drug concentration in rat blood to plasma at 20 mg/kg, po measured after 2 hrs. The settings on record: blood and plasma.
Series [10] in a line: MRT in ICR mouse at 5 mg/kg, po measured up to 24 hrs by LC/MS/MS analysis. The format is ADME, organism-based. The conditions noted are these: in vivo.
The nature of series [11]: Tmax in ICR mouse at 5 mg/kg, po measured up to 24 hrs by LC/MS/MS analysis. The format is ADME, organism-based. The settings on record: in vivo.
A short description of series [12]: Ratio of drug concentration in rat kidney to plasma at 20 mg/kg, po measured after 2 hrs.
Series [13] in a line: Toxicity in athymic mouse xenografted with tamoxifen-sensitive human MCF7 cells assessed as body weight loss at 5 to 15 mg/kg, po qd incubated for 21 days. The settings on record: in vivo, 504 h, dose 5-15 mg/kg, time 21 day. The format is organism-based. Background: Xenograft models place foreign cells or tissue in a host animal.
Series [14] in a line: AUC (0 to t) in ICR mouse at 5 mg/kg, po measured up to 24 hrs by LC/MS/MS analysis. Format: ADME, organism-based. More on the design: time < 24 hrs, dose 5 mg/kg, route po. The settings on record: in vivo.
The nature of series [15]: Drug concentration in rat uterus at 20 mg/kg, po measured after 2 hrs. Format: ADME, organism-based. The conditions noted are these: female, read-out: Ct.
The nature of series [16]: Drug concentration in rat kidney at 20 mg/kg, po measured after 2 hrs. The settings on record: read-out: Ct. The format is ADME, organism-based.

In general, Kp refers to the ratio of the level in a tissue or fluid to that in plasma or blood. By Cmax is commonly meant the peak of the concentration-time curve. A word on the MRT: it is a mean duration of stay, worked out from the concentration-time curve. For orientation: Tmax means the time at which the peak concentration occurs. As usually defined, the AUC(0-t) is exposure summed from dosing to a finite time, without extrapolation to infinity. Lower therefore signals low exposure. Take `CC(F)(F)c1cc(Cl)ccc1-c1sc2c(ccc3[nH]ncc32)c1Oc1ccc(OC2CN(CCCF)C2)cc1`: the Kp at 2 h in [1] was 7.3; in series [2] it was 0.7; in series [6] it was 4; in series [12] it was 11.7. The compound also came in with a Cmax in [3] of 764 ng/mL. The concentration at 2 h is 480 ng/mL in [4], 4420 ng/mL in series [5], 2170 ng/mL in [15] and 7100 ng/mL in [16]. Besides, the half-life in [7] was 4.6 h. In addition, the results for the MRT in series [8] and in series [10] were 7 h and 8.2 h, respectively. The blood plasma ratio at 2 h in [9] was determined as 0.8. The Tmax in series [11] worked out at 2.7 h. Further, in series [13], the Activity result is listed as “Non-Toxic”. For the same compound, the AUC(0-t) at 24 h in series [14] came to 7710 ng·h/mL.
